Measurements reported in the supplement of paper PMC4862054.

Legend:
Conditions in all cases: incubation time: 72 h
BT-474 [1] = assay: normalised response (% of control), CellTox Green; higher = less cell death (100 = DMSO, 0 = benzethonium chloride kill control)
In short: (§1)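 Two readouts were taken after 72 h: CellTox Green fluorescence (485/520 nm) first, then CellTiter-Glo luminescence after 10 min at room temperature. Breast cancer cell lines had been seeded as 20 µl suspension into 384-well plates holding compound at 5 concentrations in 10-fold steps across a compound-specific 10,000-fold range. Each value is a normalised signal at a single concentration, with plates scaled to 0.1 % DMSO (100) and a positive kill control (0).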

BT-549 [2] = assay: as above
In short: as §1

CAL-120 [3] = assay: as above
In short: as §1

CAL-148 [4] = assay: as above
In short: as §1

CAL-51 [5] = assay: as above
In short: as §1

CAL-85-1 [6] = assay: as above
In short: as §1

DU-4475 [7] = assay: as above
In short: as §1

HCC1143 [8] = assay: as above
In short: as §1

HCC1599 [9] = assay: as above
In short: as §1

HCC1937 [10] = assay: as above
In short: as §1

HDQ-P1 [11] = assay: as above
In short: as §1

MCF-10A [12] = assay: as above
In short: as §1

MDA-MB-231 [13] = assay: as above
In short: as §1

MDA-MB-436 [14] = assay: as above
In short: as §1

MDA-MB-453 [15] = assay: as above
In short: as §1

MDA-MB-468 [16] = assay: as above
In short: as §1

MFM-223 [17] = assay: as above
In short: as §1

BT-474 [18] = assay: normalised response (% of control), CellTiter-Glo; higher = more viable cells (100 = DMSO, 0 = benzethonium chloride kill control)
Method: (§2)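 DSRT, 72 h incubation, CellTox Green / CellTiter-Glo readout. Signal is normalised to DMSO and benzethonium chloride controls. Value is the normalised response at the highest dose.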

BT-549 [19] = assay: as above
Method: as §2

CAL-120 [20] = assay: as above
Method: as §2

CAL-148 [21] = assay: as above
Method: as §2

CAL-51 [22] = assay: as above
Method: as §2

CAL-85-1 [23] = assay: as above
Method: as §2

DU-4475 [24] = assay: as above
Method: as §2

HCC1143 [25] = assay: as above
Method: as §2

HCC1599 [26] = assay: as above
Method: as §2

HCC1937 [27] = assay: as above
Method: as §2

HDQ-P1 [28] = assay: as above
Method: as §2

Hs578T [29] = assay: as above
Method: as §2

MCF-10A [30] = assay: as above
Method: as §2

MDA-MB-231 [31] = assay: as above
Method: as §2

MDA-MB-436 [32] = assay: as above
Method: as §2

MDA-MB-453 [33] = assay: as above
Method: as §2

MDA-MB-468 [34] = assay: as above
Method: as §2

MFM-223 [35] = assay: as above
Method: as §2

SK-BR-3 [36] = assay: as above
Method: as §2

Hs578T [37] = assay: normalised response (% of control), CellTox Green; higher = less cell death (100 = DMSO, 0 = benzethonium chloride kill control)
In short: as §1

BT-474 [38] = assay: normalised response (% of control), CellTiter-Glo; higher = more viable cells (100 = DMSO, 0 = benzethonium chloride kill control); remark: listed apart in the source
In short: as §1

BT-549 [39] = assay: as above; remark: listed apart in the source
In short: as §1

CAL-120 [40] = assay: as above; remark: listed apart in the source
In short: as §1

CAL-148 [41] = assay: as above; remark: listed apart in the source
In short: as §1

CAL-51 [42] = assay: as above; remark: listed apart in the source
In short: as §1

CAL-85-1 [43] = assay: as above; remark: listed apart in the source
In short: as §1

DU-4475 [44] = assay: as above; remark: listed apart in the source
In short: as §1

HCC1143 [45] = assay: as above; remark: listed apart in the source
In short: as §1

HCC1599 [46] = assay: as above; remark: listed apart in the source
In short: as §1

HCC1937 [47] = assay: as above; remark: listed apart in the source
In short: as §1

HDQ-P1 [48] = assay: as above; remark: listed apart in the source
In short: as §1

Hs578T [49] = assay: as above; remark: listed apart in the source
In short: as §1

MCF-10A [50] = assay: as above; remark: listed apart in the source
In short: as §1

MDA-MB-231 [51] = assay: as above; remark: listed apart in the source
In short: as §1

MDA-MB-436 [52] = assay: as above; remark: listed apart in the source
In short: as §1

MDA-MB-453 [53] = assay: as above; remark: listed apart in the source
In short: as §1

MDA-MB-468 [54] = assay: as above; remark: listed apart in the source
In short: as §1

MFM-223 [55] = assay: as above; remark: listed apart in the source
In short: as §1

SK-BR-3 [56] = assay: as above; remark: listed apart in the source
In short: as §1

CC(C)(C)Cn1c(N)nc2ccc(-c3[nH]c(C(C)(C)C)nc3-c3ccc(F)cc3)nc21 (10000 nM)
normalised response (BT-474 [1]): 89.8%
normalised response (BT-549 [2]): 90.9%
normalised response (CAL-120 [3]): 93.6%
normalised response (CAL-148 [4]): 98.9%
normalised response (CAL-51 [5]): 104%
normalised response (CAL-85-1 [6]): 41.5%
normalised response (DU-4475 [7]): 95.7%
normalised response (HCC1143 [8]): 87.1%
normalised response (HCC1599 [9]): 85.6%
normalised response (HCC1937 [10]): 92.4%
normalised response (HDQ-P1 [11]): 100%
normalised response (MCF-10A [12]): 89.3%
normalised response (MDA-MB-231 [13]): 47.1%
normalised response (MDA-MB-436 [14]): 71.1%
normalised response (MDA-MB-453 [15]): 93.9%
normalised response (MDA-MB-468 [16]): 107%
normalised response (MFM-223 [17]): 86.6%
normalised response (BT-474 [18]): 66.4%
normalised response (BT-549 [19]): 76.4%
normalised response (CAL-120 [20]): 89.3%
normalised response (CAL-148 [21]): 94.7%
normalised response (CAL-51 [22]): 104%
normalised response (CAL-85-1 [23]): 64.9%
normalised response (DU-4475 [24]): 99.4%
normalised response (HCC1143 [25]): 86.1%
normalised response (HCC1599 [26]): 78.1%
normalised response (HCC1937 [27]): 65.3%
normalised response (HDQ-P1 [28]): 70.7%
normalised response (Hs578T [29]): 94.1%
normalised response (MCF-10A [30]): 43.6%
normalised response (MDA-MB-231 [31]): 67.2%
normalised response (MDA-MB-436 [32]): 82.1%
normalised response (MDA-MB-453 [33]): 77.3%
normalised response (MDA-MB-468 [34]): 37%
normalised response (MFM-223 [35]): 63.7%
normalised response (SK-BR-3 [36]): 62.7%

CC(C)NC[C@@H](C(=O)N1CCN(c2ncnc3c2[C@H](C)C[C@H]3O)CC1)c1ccc(Cl)cc1 [GDC-0068] (100 nM)
normalised response (BT-474 [1]): 96.9%
normalised response (BT-549 [2]): 98.9%
normalised response (CAL-120 [3]): 104%
normalised response (CAL-148 [4]): 82.4%
normalised response (CAL-51 [5]): 106%
normalised response (CAL-85-1 [6]): 108%
normalised response (DU-4475 [7]): 102%
normalised response (HCC1143 [8]): 93.9%
normalised response (HCC1599 [9]): 94.8%
normalised response (HCC1937 [10]): 104%
normalised response (HDQ-P1 [11]): 87%
normalised response (Hs578T [37]): 97.8%
normalised response (MCF-10A [12]): 106%
normalised response (MDA-MB-231 [13]): 97.8%
normalised response (MDA-MB-436 [14]): 85%
normalised response (MDA-MB-453 [15]): 107%
normalised response (MDA-MB-468 [16]): 125%
normalised response (MFM-223 [17]): 102%
normalised response (BT-474 [38]): 102%
normalised response (BT-549 [39]): 94.2%
normalised response (CAL-120 [40]): 104%
normalised response (CAL-148 [41]): 62.8%
normalised response (CAL-51 [42]): 80%
normalised response (CAL-85-1 [43]): 98.3%
normalised response (DU-4475 [44]): 98.8%
normalised response (HCC1143 [45]): 100%
normalised response (HCC1599 [46]): 93.9%
normalised response (HCC1937 [47]): 90.9%
normalised response (HDQ-P1 [48]): 89.2%
normalised response (Hs578T [49]): 102%
normalised response (MCF-10A [50]): 111%
normalised response (MDA-MB-231 [51]): 104%
normalised response (MDA-MB-436 [52]): 97.3%
normalised response (MDA-MB-453 [53]): 84.2%
normalised response (MDA-MB-468 [54]): 84%
normalised response (MFM-223 [55]): 68.4%
normalised response (SK-BR-3 [56]): 95.1%
